Measurements reported in ChEMBL document CHEMBL3044553, “Amino steroids as antimalarial agents” (2008).
Converted amounts (≈) assume the structure as drawn.

What follows are molecules tested on Plasmodium falciparum (assay: Antimalarial activity against chloroquine-sensitive Plasmodium falciparum NF54 assessed as inhibition of maturation of rings into schizonts stage).
Assay type: functional

Compound | MIC [µg/mL]
CCCCNCC[C@@H](C)[C@H]1CC[C@H]2[C@@H]3CC[C@@H]4C[C@H](OC(C)=O)CC[C@]4(C)[C@H]3C[C@H](OC(C)=O)[C@]12C | > 50
CC(=O)O[C@@H]1CC[C@@]2(C)[C@H](CC[C@@H]3[C@@H]2C[C@H](OC(C)=O)[C@]2(C)[C@@H]([C@H](C)CCNC(C)C)CC[C@@H]32)C1 | > 50
CC(=O)O[C@@H]1CC[C@@]2(C)[C@H](CC[C@@H]3[C@@H]2C[C@H](OC(C)=O)[C@]2(C)[C@@H]([C@H](C)CCNCc4ccccc4)CC[C@@H]32)C1 | 50 (≈ 93 µM)
CC(=O)O[C@@H]1CC[C@@]2(C)[C@H](CC[C@@H]3[C@@H]2C[C@H](OC(C)=O)[C@]2(C)[C@@H]([C@H](C)CNCCCCNc4ccnc5cc(Cl)ccc45)CC[C@@H]32)C1 | 1 (≈ 1.5 µM)
CC(=O)O[C@@H]1CC[C@@]2(C)[C@H](CC[C@@H]3[C@@H]2C[C@H](OC(C)=O)[C@]2(C)[C@@H]([C@H](C)CNCCCNc4ccnc5cc(Cl)ccc45)CC[C@@H]32)C1 | 0.5 (≈ 0.766 µM)
CCCCNC[C@@H](C)[C@H]1CC[C@H]2[C@@H]3CC[C@@H]4C[C@H](OC(C)=O)CC[C@]4(C)[C@H]3C[C@H](OC(C)=O)[C@]12C | > 10
CC(=O)O[C@@H]1CC[C@@]2(C)[C@H](CC[C@@H]3[C@@H]2C[C@H](OC(C)=O)[C@]2(C)[C@@H]([C@H](C)CNC(C)C)CC[C@@H]32)C1 | 10 (≈ 21 µM)
CC(=O)O[C@@H]1CC[C@@]2(C)[C@H](CC[C@@H]3[C@@H]2C[C@H](OC(C)=O)[C@]2(C)[C@@H]([C@H](C)CNCc4ccccc4)CC[C@@H]32)C1 | 2 (≈ 3.82 µM)
NCCCNc1ccnc2cc(Cl)ccc12 | 10 (≈ 42.4 µM)
NCCCCNc1ccnc2cc(Cl)ccc12 | 2 (≈ 8.01 µM)
CCN(CC)CCCC(C)Nc1ccnc2cc(Cl)ccc12 (stereo unspecified) [CHLOROQUINE] | 0.04 (≈ 0.125 µM)
